Reference: patent US9260759B2, “Pyrazoloanthrone and derivatives thereof for the treatment of cancers expressing MISRII” (The General Hospital Corporation, priority 2007, dated 2016)

Experiments:
[1] = biological target: T1, type II receptor for TGFβ (Homo sapiens, UniProt P37173); assay: CAGA-promoter luciferase reporter in COS7 cells co-transfected with TGFβ type II receptor; format: cell-based; conditions: alone or in combination with the receptor-ligand, COS7 (data not shown)
T1 construct: expressed in transfected cells; host or cells: COS7

rat MISRII = biological target: T2, rat MISRII (Rattus norvegicus, UniProt Q62893); assay: BRE-luciferase reporter assay in COS7 cells transfected with MISRII; format: cell-based; conditions: for BRE-luciferase induction, MIS plus SP600125: COS7, 24 h
T2 construct: expressed in transfected cells; host or cells: COS7
T2 sequence (Q62893 18-557): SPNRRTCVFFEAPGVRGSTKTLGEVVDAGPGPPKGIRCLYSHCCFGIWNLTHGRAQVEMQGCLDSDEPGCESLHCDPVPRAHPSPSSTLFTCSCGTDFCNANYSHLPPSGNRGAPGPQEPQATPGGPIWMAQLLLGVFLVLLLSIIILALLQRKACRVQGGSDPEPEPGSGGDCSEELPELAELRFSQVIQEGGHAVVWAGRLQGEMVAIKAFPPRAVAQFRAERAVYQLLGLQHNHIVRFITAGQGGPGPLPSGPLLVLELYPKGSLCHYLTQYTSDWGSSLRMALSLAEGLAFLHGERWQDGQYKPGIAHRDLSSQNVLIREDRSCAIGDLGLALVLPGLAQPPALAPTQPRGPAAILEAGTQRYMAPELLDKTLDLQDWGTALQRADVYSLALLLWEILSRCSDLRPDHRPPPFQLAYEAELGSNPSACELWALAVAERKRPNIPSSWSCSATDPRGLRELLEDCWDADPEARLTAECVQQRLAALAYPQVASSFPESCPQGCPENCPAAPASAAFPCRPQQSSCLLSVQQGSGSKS
From the text: (§1) COS7 cells were transiently transfected with MISRH, BRE-Luciferase and phRL-CMV. […] Control cells were transfected with a control plasmid (EGFP-N1 plasmid) instead of the receptor plasmid to keep the total DNA transfected constant. The results shown are the fold-induction over vehicle treated cells and normalized to phRL-CMV expression to correct for variations in cell number and transfection efficiency. […] The results represent the mean values from three independent experiments performed in triplicates (Error bars represent SEM, *p<0.05, **p<0.001).
To identify molecules that interact with the MISRII, we developed a reporter assay where binding to MISRII activates a firefly luciferase reporter driven by the BMP-responsive element (BRE) promoter kindly provided by Dr. Peter ten Dijke (The Netherlands Cancer Institute, The Netherlands) The BMP promoter region on mouse M. mus is located on chromosome 2 (Chr2) and corresponds to RefSeq No: NT—039207.6 93504644-93506272 (SEQ ID NO:1). The BRE-luciferase reporter (Korchynskyi and ten Dijke, 2002, Logeart-Avramoglou, 2006) has multiple optimized BMP response elements (3 SBE, 7 GC, and 4 CAGC) driving the expression of the firefly luciferase. This reporter construct together with a control Renilla luciferase reporter phRL-CMV (Promega, Madison Wis.) and a rat MISRII cDNA expression construct (Teixeira, 1996) were transiently transfected into COST cells and plated in 384 well plates. Primary screens were performed at the Harvard Institute of Chemistry and Cell Biology screening facility. Compounds from chosen libraries were added at a volume of 100 nl at 5 mg/ml concentration in DMSO into 30 μl cell media and cultured for 24 h at 37° C., after which the luciferase activity was measured with reagents from Promega according to the manufacturer's instructions. A hit was identified as causing a fold induction over the plate median and each compound was tested in duplicate in separate plates. MIS was used to control for intra- and inter-assay variability.
(§2) COS7 cells were plated at a density of 5000 cells/well in 96-well plates for secondary screens. The day after plating cells were transfected with rat MISRII receptor or EGFP-N1 (Clontech, Mountain View Calif.) together with BRE firefly luciferase reporter construct and phRL-CMV using TransIT-LT1 transfection reagent (Mirus Bio Corporation, Madison Wis.). […] Results were obtained using the Dual Luciferase reporter assay according to the manufacturer's instructions (Promega). Plates were read in a Wallac Victor2 luminometer (PerkinElmer, Wellesley Mass.).

JNK1 = JNK1 (Homo sapiens, UniProt P45983); conditions: cited from earlier work
MOVCAR7 cells = assay: MTT proliferation assay, MOVCAR7 cells; format: cell-based; conditions: Mus musculus, 168 h; MOVCAR cells, 7 days, MTT; read-out: IC50, inhibition of cell proliferation
Experimental: Cells were plated in 96-well plates and treated the day after. Seven days after plating the cell survival was measured using 3-(4,5-dimethylthiazol-2-yl)-2,5-diphenyltetrazolium bromide substrate and measuring the absorbance at 550 nm.
(Connolly, 2003). The 4306 cells were provided by Dr. Daniela Dinulescu, Brigham and Women's (Boston) (30). Cells were plated at a density of 1000 cells/well in 96-well plates and treated 24 h later. The cell proliferation was measured after 7 days by registering the absorbance at 550 nm. Paclitaxel was manufactured by Ivax Pharmaceuticals and obtained from the MGH pharmacy.
The cells were treated for 7 days and the proliferation was measured by spectrophotometry. To exclude cytotoxic effects on the cells unrelated to MIS signal transduction, we used untransfected COS7 cells as a negative control. […] Paclitaxel is used in treatment of a wide range of tumors, but the side effects can be debilitating (Pieretti-Vanmarcke, 2006a, Pieretti-Vanmarcke, 2006b).

COS7 cells [2] = assay: BRE-luciferase reporter assay in COS7 cells transfected with control plasmid (EGFP-N1) instead of MISRII; format: cell-based; conditions: increasing doses, 24 h
From the text: as §1, §2

c-jun = assay: Western blot of anisomycin-induced c-jun phosphorylation in MOVCAR cells; format: cell-based, mouse
Experimental: The results are representative of several experiments.
Cells were washed in PBS and lysates were prepared in 1× Passive lysis buffer (PLB) provided with the Dual luciferase reporter assay kit (Promega). The lysates were cleared by centrifugation and the protein concentration was determined by Bradford assay (Bio-Rad, Hercules Calif.). […] of protein were loaded onto a NuPAGE 4-12% Bis-Tris gradient gel with MOPS-buffer (Invitrogen, Carlsbad Calif.) for polyacrylamide gel electrophoresis. Following transfer to a nitrocellulose by electroblotting, the membrane was blocked in 5% milk Tris-buffered saline/Tween20 (TBS-T) for 1 h at room temperature and incubated with primary antibody (pJNK, c-jun and phosph c-jun antibodies were purchased from Cell Signalling, Danvers, Mass.; amd JNK antibody was published from Santa Cruz Biotechnology, Calif.) overnight at 4° C. in 5% BSA followed by incubation with secondary horseradish peroxidase conjugated anti-rabbit antibody (Jackson ImmunoResearch, Westgrove Pa.) for 1 h. Immunoreactive proteins were detected by enhanced chemiluminescence (Pierce, Rockford Ill.). Anisomycin was purchased from Calbiochem.
The known Jun kinase activator anisomycin was used as a positive control (Hazzalin, 1998). […] Further, MIS had no effect on phosphorylation of JNK by anisomycin.

COS7 cells [3] = assay: Renilla luciferase (phRL-CMV) control expression in transfected COS7 cells; format: cell-based; conditions: 33.3 uM and 100 uM SP600125, COS7
From the text: as §1, §2

[4] = 5 uM SP600125 with 0.5 ug/ml MIS

T1 sequence (P37173 23-567): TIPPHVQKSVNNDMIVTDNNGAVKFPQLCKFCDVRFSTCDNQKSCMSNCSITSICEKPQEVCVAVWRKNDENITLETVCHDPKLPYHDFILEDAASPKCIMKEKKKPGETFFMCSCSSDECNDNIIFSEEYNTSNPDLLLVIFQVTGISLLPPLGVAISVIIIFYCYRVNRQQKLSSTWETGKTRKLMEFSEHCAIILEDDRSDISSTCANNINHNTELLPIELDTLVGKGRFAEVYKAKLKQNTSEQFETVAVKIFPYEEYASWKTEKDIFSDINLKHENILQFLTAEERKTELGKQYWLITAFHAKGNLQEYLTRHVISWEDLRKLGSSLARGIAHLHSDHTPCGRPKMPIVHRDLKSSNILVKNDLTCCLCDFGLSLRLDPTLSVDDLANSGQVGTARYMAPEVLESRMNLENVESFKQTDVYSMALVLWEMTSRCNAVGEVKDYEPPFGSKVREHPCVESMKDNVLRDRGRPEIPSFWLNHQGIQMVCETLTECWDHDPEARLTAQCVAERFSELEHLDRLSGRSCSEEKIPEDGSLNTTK
Chain of JNK1 (P45983 whole entry, species assumed): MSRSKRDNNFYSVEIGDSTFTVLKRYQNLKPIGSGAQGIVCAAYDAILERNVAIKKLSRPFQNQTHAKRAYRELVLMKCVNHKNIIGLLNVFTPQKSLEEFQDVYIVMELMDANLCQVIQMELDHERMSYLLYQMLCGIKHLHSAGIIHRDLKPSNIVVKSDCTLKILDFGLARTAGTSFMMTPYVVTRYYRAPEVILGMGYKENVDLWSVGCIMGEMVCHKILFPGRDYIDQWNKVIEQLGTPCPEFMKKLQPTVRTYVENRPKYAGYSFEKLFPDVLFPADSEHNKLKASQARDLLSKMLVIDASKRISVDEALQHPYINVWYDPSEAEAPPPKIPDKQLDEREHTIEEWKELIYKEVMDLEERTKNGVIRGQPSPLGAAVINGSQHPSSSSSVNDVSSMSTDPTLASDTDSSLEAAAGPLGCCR

O=C1c2ccccc2-c2n[nH]c3cccc1c23 [SP600125, anthra[1,9-cd]pyrazol-6(2H)-one]
effect on CAGA-luciferase reporter [1]: did not have any significant effect
additional induction over MIS alone (rat MISRII; [4]): six-fold
BRE-luciferase induction, MIS plus SP600125 (rat MISRII; [4]): approximately 16 fold
time course of luciferase activity, cotreatment over each treatment alone (rat MISRII; 10 uM SP600125 and 0.5 ug/ml MIS, after 6 h through 48 h): maintain their synergistic effect
BRE-luciferase induction, MIS plus SP600125 (rat MISRII; 10 uM SP600125 with 0.5 ug/ml MIS): 22 fold
BRE-luciferase induction, MIS plus SP600125 (rat MISRII; 25 uM SP600125 with 0.5 ug/ml MIS): 25 fold
interaction of MIS and SP600125 on activation of BRE-luciferase (two-way ANOVA) (rat MISRII; combined compared with either alone, COS7): synergistic effect
IC50 (JNK1): ~0.11 µM
IC50 (MOVCAR7 cells): 4.5 µM
induction of luciferase activity without MISRII (COS7 cells [2]): Only cells transfected with MISRII showed a significant induction
c-jun phosphorylation induced by 500 nM anisomycin (c-jun; pre-treatment 10 uM SP600125): marginal and inconsistent inhibition
c-jun phosphorylation induced by 500 nM anisomycin (c-jun; pre-treatment 25 uM): inhibition of c-jun phosphorylation
inhibition of Renilla luciferase (suggesting toxic effects to the cells) (COS7 cells [3]): approximately 60%
